Like-named read-outs stand apart in the source and are kept apart here.
What was measured:
[1] = test system: L5178Y mouse lymphoma cells; assay: Cellular ATP level assay; assay type: cell-based; details: read-out: IC20, ATP assay; L5178Y cells, 4-h treatment
[2] = test system: thymidine kinase (Tk) gene of the L5178Y/Tk+/− −3.7.2C mouse lymphoma cell line; assay: Mouse lymphoma assay; assay type: cell-based; details: for BMDL10, MLA without S9: lower limit of the 10% BMD, Hill model of PROAST, MF data; for Ranking, MLA without S9: potency ranking by BMDL10, 1 = most potent
[3] = test system: L5178Y mouse lymphoma cells; assay: Alkaline Comet assay; assay type: cell-based; details: for lowest concentration that induced significant DNA damage / highest percentage of DNA in tail: 4-h treatment; for lowest concentration that induced significant DNA damage: absence of S9; for highest percentage of DNA in tail: absence of S9, background approximately 5%; for BMDL10, Comet assay: lower limit of the 10% BMD, Hill model of PROAST, %DNA in tail data, without S9
[4] = test system: L5178Y mouse lymphoma cells; assay: MTS cell proliferation assay; assay type: cell-based; details: 4-h treatment; for reduction in cell viability, MTS assay: at the lowest concentrations tested; for IC20: read-out: IC20, MTS assay, L5178Y cells
[5] = test system: thymidine kinase (Tk) gene of the L5178Y/Tk+/− −3.7.2C mouse lymphoma cell line; assay: Mouse lymphoma assay; assay type: cell-based; details: for BMDL10, MLA with S9: lower limit of the 10% BMD, Hill model of PROAST, MF data; for Ranking, MLA with S9: potency ranking by BMDL10, 1 = most potent
[6] = test system: L5178Y mouse lymphoma cells; assay: CellTiter-Blue cell viability assay; assay type: cell-based; details: read-out: IC20, Blue assay; L5178Y cells, 4-h treatment
[7] = test system: TK6 human lymphoblastoid cells; details: ref Guo et al., 2013; cited from earlier work
[8] = test system: Tk mutants of L5178Y mouse lymphoma cells; assay: LOH evaluation of Tk mutants from the MLA; assay type: cell-based; details: with vs without S9, p < .05
[9] = test system: thymidine kinase (Tk) gene of the L5178Y/Tk+/− −3.7.2C mouse lymphoma cell line; details: with S9, at concentration that produced 10%–20% RTG; ref Guo et al., 2013; cited from earlier work
[10] = test system: thymidine kinase (Tk) gene of the L5178Y/Tk+/− −3.7.2C mouse lymphoma cell line; details: ref Guo et al., 2013, cited from earlier work
Cellular ATP level assay = assay type: cell-based, mouse; details: mouse, L5178Y mouse lymphoma cells
[11] = MTS cell proliferation assay; assay type: cell-based, mouse; details: mouse
[12] = test system: Chinese hamster ovary AS52 cells; details: CHO AS52 cells; ref DeGraff et al., 1992; cited from earlier work
Chinese hamster cells = details: ref Mitchell et al., 1991, cited from earlier work
[13] = CellTiter-Blue cell viability assay; assay type: cell-based, mouse; details: mouse, L5178Y mouse lymphoma cells
[14] = absence of S9, at the cytotoxicity limit for the MLA
[15] = without S9, at concentration that produced 10%–20% RTG

Row | SMILES | IC20 [1] | mutant frequency (MF) [2, 14] | BMDL10, MLA without S9 [2] | Ranking, MLA without S9 [2] | lowest concentration that induced significant DNA damage [3] | highest percentage of DNA in tail [3] | BMDL10, Comet assay [3] | reduction in cell viability, MTS assay [4] | IC20 [4] | BMDL10, MLA with S9 [5] | Ranking, MLA with S9 [5] | IC20 [6] | effect of metabolic activation on mutational spectra (LOH) [8] | other results
1 | COC1CC(C)(C)N([O])C(C)(C)C1 [4-methoxy-TEMPO] | 3870 µM | 537 × 10^−6 | 0.756 | 2 | 6 mM | 13% | 3.358 | approximately 50% | 30 µM | 0.770 | 3 | 2580 µM |  | mutant frequency (MF) [2, 15]: 508 per million cells; mutant frequency (MF) ([5]; with S9, at concentration that produced 10%–20% RTG): 961 per million cells
2 | CC1(C)CCCC(C)(C)N1[O] [TEMPO, 2,2,6,6-tetramethylphiperidine-1-oxyl] | 1920 µM |  | 0.981 | 3 | 2 mM | 28% | 0.454 | approximately 50% | 11 µM | 0.257 | 2 | 4970 µM | significantly altered | micronucleus induction [7]: induced micronuclei; mutant frequency (MF) [9]: 502 per million cells; mutant frequency (MF) [10, 14]: 208 × 10^−6; MLA result ([10]; earlier study, with and without 1% S9): mutagenic; mutant frequency (MF) [10, 15]: 208 per million cells
3 | CC1(C)CC(O)CC(C)(C)N1[O] [4-hydroxy-TEMPO] |  |  | 1.300 | 4 | 4 mM | 21% | 1.612 | approximately 50% |  | 1.024 | 4 |  | significantly altered | IC20 at 4 h (Cellular ATP level assay): 6390 µM; IC20 at 4 h [11]: 356 µM; mutagenicity and toxicity [12]: not mutagenic or toxic; radiation protection factor (Chinese hamster cells; 10 mM for 10 min prior to X-irradiation): 1.3; radiation protection factor (Chinese hamster cells; 100 mM for 10 min prior to X-irradiation): 2.5; IC20 at 4 h [13]: 1780 µM
4 | CC1(C)CC(=O)CC(C)(C)N1[O] [4-oxo-TEMPO] | 1730 µM | 584 × 10^−6 | 0.661 | 1 | 3 mM | 14% | 1.114 |  | 1550 µM | 0.058 | 1 | 1950 µM |  | 

— article PMC6388407 (Toxicological sciences : an official journal of the Society …, 2018)
